Where two headings read alike, the source gives them in different places.
Assays:
Phaedon cochleariae = Phaedon cochleariae spray test; assay type: in vivo; conditions: application rate 100 g/ha, after 7 days
Procedure: Phaedon Cochleariae—Spray Test
(§1) • Solvent: 78.0 parts by weight of acetone • 1.5 parts by weight of dimethylformamide • Emulsifier: alkylaryl polyglycol ether
(§2) To produce a suitable preparation of active compound, 1 part by weight of active compound is dissolved using the stated parts by weight of solvent and made up with water containing an emulsifier concentration of 1000 ppm until the desired concentration is attained. To produce further test concentrations, the preparation is diluted with emulsifier-containing water.
After 7 days, the efficacy in % is determined. 100% means that all the beetle larvae have been killed; 0% means that no beetle larvae have been killed.

Ctenocephalides felis [1] = experiment: Ctenocephalides felis in vitro contact test with adult cat fleas; assay type: in vivo; conditions: application rate 500 g/ha (5 μg/cm^2), after 48 h
Procedure: Ctenocephalides felis—In Vitro Contact Tests with Adult Cat Fleas
(§3) For the coating of the test tubes, 9 mg of active compound are first dissolved in 1 ml of acetone p.a. and then diluted to the desired concentration with acetone p.a. 250 μl of the solution are distributed homogeneously on the inner walls and the base of a 25 ml test tube by turning and rocking on an orbital shaker (rocking rotation at 30 rpm for 2 h). With 900 ppm active compound solution and internal surface 44.7 cm^2, given homogeneous distribution, an area-based dose of 5 μg/cm^2 is achieved.
After the solvent has evaporated off, the tubes are populated with 5-10 adult cat fleas (Ctenocephalides felis), sealed with a perforated plastic lid and incubated in a horizontal position at room temperature and ambient humidity. After 48 h, efficacy is determined. To this end, the test tubes are stood upright and the fleas are knocked to the base of the tube. Fleas which remain motionless at the base or move in an uncoordinated manner are considered to be dead or moribund.
100% efficacy means that all the fleas were dead or moribund. 0% efficacy means that no fleas were harmed.

Tetranychus urticae = Tetranychus urticae spray test, OP-resistant; assay type: in vivo; conditions: after 6 days
Procedure: Tetranychus Urticae—Spray Test, OP-Resistant
as §1
To produce further test concentrations, the preparation is diluted with emulsifier-containing water.
After 6 days, the efficacy in % is determined. 100% means that all the spider mites have been killed; 0% means that none of the spider mites have been killed.

[2] = logP by HPLC on reversed-phase column (C18), EEC Directive 79/831 Annex V.A8; assay type: physicochemical
Musca domestica = Musca domestica test; assay type: in vivo; conditions: application rate 100 ppm, adult houseflies, after 2 days
Procedure: (§4) • Solvent: dimethyl sulphoxide
(§5) To produce a suitable preparation of active compound, 10 mg of active compound are mixed with 0.5 ml of dimethyl sulphoxide, and the concentrate is diluted with water to the desired concentration.
Vessels containing a sponge treated with sugar solution and the active compound preparation of the desired concentration are populated with 10 adult houseflies (Musca domestica).
After 2 days, the kill in % is determined. 100% means that all of the flies have been killed; 0% means that none of the flies have been killed.

Boophilus microplus = Boophilus microplus injection test; assay type: in vivo; conditions: application rate 20 μg/animal, assessed after 7 days
Procedure: Boophilus microplus—Injection Test • Solvent: dimethyl sulphoxide […] The animals are transferred into dishes and kept in a climate-controlled room. Efficacy is assessed after 7 days by laying of fertile eggs. Eggs which are not visibly fertile are stored in a climate-controlled cabinet until the larvae hatch after about 42 days.

Lucilia cuprina = Lucilia cuprina test; assay type: in vivo; conditions: application rate 100 ppm, L1 larvae, after 2 days
Procedure: as §4, §5
About 20 L1 larvae of the Australian sheep blowfly (Lucilia cuprina) are transferred into a test vessel containing minced horsemeat and the active compound preparation of the desired concentration.
After 2 days, the kill in % is determined. 100% means that all the larvae have been killed; 0% means that no larvae have been killed.

[3] = system: Boophilus microplus Parkhurst strain, SP-resistant; experiment: Boophilus microplus dip test; assay type: in vivo; conditions: application rate 100 ppm, assessed after 7 days
Procedure: Boophilus microplus—Dip Test
• Test animals: cattle ticks (Boophilus microplus) Parkhurst strain, SP-resistant • Solvent: dimethyl sulphoxide
10 mg of active compound are dissolved in 0.5 ml of dimethyl sulphoxide. To produce a suitable formulation, the active compound solution is diluted with water to the concentration desired in each case.
This active compound preparation is pipetted into tubes. 8-10 engorged adult female cattle ticks (Boophilus microplus) are transferred into a further tube with holes. The tube is immersed into the active compound preparation, and all the ticks are completely wetted. After the liquid has run out, the ticks are transferred on filter discs into plastic dishes and stored in a climate-controlled room.
Efficacy is assessed after 7 days by laying of fertile eggs. Eggs which are not visibly fertile are stored in a climate-controlled cabinet until the larvae hatch after about 42 days. An efficacy of 100% means that none of the ticks has laid any fertile eggs; 0% means that all the eggs are fertile.

Amblyomma hebraeum = Amblyomma hebraeum test (tick nymphs, immersion); assay type: in vivo; conditions: application rate 100 ppm, after 42 days
Text: Amblyomma hebaraeum Test • Solvent: dimethyl sulphoxide […] Tick nymphs (Amblyomma hebraeum) are placed into perforated plastic beakers and immersed in the desired concentration for one minute. The ticks are transferred on filter paper into a Petri dish and stored in a climate-controlled cabinet.

Ctenocephalides felis [4] = experiment: Ctenocephalides felis oral test; assay type: in vivo; conditions: application rate 100 ppm in citrated cattle blood, after 2 days
Text: Ctenocephalides felis—Oral Test • Solvent: dimethyl sulphoxide […] Dilution with citrated cattle blood gives the desired concentration. About 20 unfed adult cat fleas (Ctenocephalides felis) are placed into a chamber which is closed at the top and bottom with gauze. A metal cylinder whose bottom end is closed with parafilm is placed onto the chamber. The cylinder contains the blood/active compound preparation, which can be imbibed by the fleas through the parafilm membrane.

Rhipicephalus sanguineus = Rhipicephalus sanguineus in vitro contact test with adult brown dog ticks; assay type: in vivo; conditions: after 48 h
Procedure: Rhipicephalus sanguineus—In Vitro Contact Tests with Adult Brown Dog Ticks
as §3
After the solvent has evaporated off, the tubes are populated with 5-10 adult dog ticks (Rhipicephalus sanguineus), sealed with a perforated plastic lid and incubated in a horizontal position in the dark at room temperature and ambient humidity. After 48 h, efficacy is determined. To this end, the ticks are knocked to the floor of the tube and incubated on a hotplate at 45-50° C. for not more than 5 min. Ticks which remain motionless on the floor or move in such an uncoordinated manner that they are unable to deliberately avoid the heat by climbing upwards are considered to be dead or moribund.
An efficacy of 100% means that all the ticks were dead or moribund. 0% efficacy means that none of the ticks had been harmed.

Spodoptera frugiperda = Spodoptera frugiperda spray test; assay type: in vivo; conditions: application rate 100 g/ha, after 7 days
Procedure: Spodoptera Frugiperda—Spray Test
as §1, §2
Leaf discs of maize (Zea mays) are sprayed with an active compound preparation of the desired concentration and, after drying, populated with caterpillars of the armyworm (Spodopterafrugiperda).
After 7 days, the efficacy in % is determined. 100% means that all the caterpillars have been killed; 0% means that no caterpillars have been killed.

Myzus persicae = Myzus persicae spray test; assay type: in vivo; conditions: application rate 100 g/ha, after 6 days
Procedure: Myzus Persicae—Spray Test […] To produce further test concentrations, the preparation is diluted with emulsifier-containing water. Discs of Chinese cabbage leaves (Brassica pekinensis) infested by all stages of the green peach aphid (Myzus persicae) are sprayed with an active compound preparation of the desired concentration.

[5] = HPLC, C18, acetonitrile (0.1% formic acid)/water (0.09% formic acid) gradient
[6] = application rate 500 g/ha (5 μg/cm^2)

| SMILES | efficacy in % (Phaedon cochleariae) | efficacy (fleas dead or moribund) (Ctenocephalides felis [1]) | efficacy in % (Tetranychus urticae; application rate 100 g/ha) | logP [2, 5] | efficacy (kill in %) (Musca domestica) | efficacy (laying of fertile eggs) (Boophilus microplus) | efficacy (kill in %) (Lucilia cuprina) | efficacy (laying of fertile eggs) [3] | efficacy (kill in %) (Amblyomma hebraeum) | efficacy (kill in %) (Ctenocephalides felis [4]) | efficacy (ticks dead or moribund) (Rhipicephalus sanguineus; application rate 20 g/ha (0.2 μg/cm^2)) | efficacy (ticks dead or moribund) (Rhipicephalus sanguineus; [6]) | efficacy in % (Tetranychus urticae; application rate 20 g/ha) | efficacy in % (Spodoptera frugiperda) | efficacy in % (Myzus persicae) | chromatographic logP ([2]; reversed-phase C18 HPLC column, HPLC, C18, acetonitrile (0.1% formic acid)/water (0.09% formic acid) gradient, read-out: logP) | chromatographic logP ([2]; reversed-phase C18 HPLC column, HPLC-MS method a), read-out: log P (HPLC-MS)) |
| --- | --- | --- | --- | --- | --- | --- | --- | --- | --- | --- | --- | --- | --- | --- | --- | --- | --- |
| N#CC1(NC(=O)c2cc(-c3cn(-c4c(Cl)cc(C(F)(C(F)(F)F)C(F)(F)F)cc4Cl)nn3)cnc2Cl)CC1 [Example 9] | 100% | 100% | 100% | 3.8 | 100% | 100% | 100% | 100% | 100% | 100% | 100% |  |  |  |  |  |  |
| Cc1cc(C(F)(C(F)(F)F)C(F)(F)F)cc(C)c1-n1cc(-c2cnc(Cl)c(C(=O)NC3(C#N)CC3)c2)nn1 [Example 8] | 100% | 100% | 100% | 3.8 | 95% | 100% | 90% | 100% | 100% | 100% |  | 100% |  |  |  |  |  |
| O=C(NC1CC1)c1cc(-c2cn(-c3c(Cl)cc(C(F)(C(F)(F)F)C(F)(F)F)cc3Cl)nn2)cnc1Cl [Example 3] | 100% |  |  | 3.9 | 100% | 100% | 100% | 100% | 100% | 100% |  | 100% | 90% | 100% |  |  |  |
| Cc1cc(C(F)(C(F)(F)F)C(F)(F)F)cc(C)c1-n1cc(-c2cnc(Cl)c(C(=O)NC3CC3)c2)nn1 [Example 2] | 100% | 100% | 90% | 3.8 | 100% | 100% | 100% | 100% | 100% | 100% |  | 100% |  | 100% | 90% |  |  |
| Cc1cc(C(F)(C(F)(F)F)C(F)(F)F)cc(C)c1-n1cc(-c2cnc(C)c(C(=O)NC3(C#N)CC3)c2)nn1 [Example 12] | 100% | 100% | 100% | 3.4 | 100% | 100% | 100% | 80% |  | 100% |  | 80% |  | 100% | 90% |  |  |
| Cc1cc(C(F)(C(F)(F)F)C(F)(F)F)cc(C)c1-n1cc(-c2cnc(C)c(C(=O)NC3CC3)c2)nn1 [Example 1, N-cyclopropyl-5-[1-[2,6-dimethyl-4-[1,2,2,2-tetrafluoro-1-(trifluoromethyl)ethyl]phenyl]triazol-4-yl]-2-methylpyridine-3-carboxamide] | 100% | 100% | 100% |  | 100% | 100% | 100% | 100% | 80% | 100% |  | 100% |  | 100% | 90% | 3.3 | 3.33 |
| Cc1ncc(-c2cn(-c3c(Cl)cc(C(F)(C(F)(F)F)C(F)(F)F)cc3Cl)nn2)cc1C(=O)NC1CC1 [Example 5] | 100% | 100% | 100% | 3.4 | 100% | 100% | 100% | 100% | 100% | 100% |  | 100% |  | 100% |  |  |  |

— patent US10208015B2, “Aryl-triazolyl pyridines as pest control agents” (BAYER ANIMAL HEALTH GMBH, priority 2014, dated 2019)
